Measured values from publication PMC12140300, “Development of Carbon‐11 Labeled Pyrimidine Derivatives as Novel Positron Emission Tomography (PET) Agents Enabling Brain Sigma‐1 Receptor Imaging” (Advanced Science, 2025).

Assays:
Test in all cases: PDSP radioligand assay
Type in all cases: binding
5-HT7A = 5-HT7A (Homo sapiens, UniProt P34969)
Description: (§1) The ex vivo binding affinities of σRs of CNY‐01 and CNY‐02 were measured using a competitive radioligand binding assay.^[ [35] ^]
(§2) Details of individual binding assay conditions and protocols are available at the NIMH PDSP website: https://pdsp.unc.edu/pdspweb/.

GABAA = conditions: 10 µM
Description: as §1, §2

5-HT1D = 5-HT1D (Homo sapiens, UniProt P28221)
Chain of 5-HT1D (P28221 whole entry, species assumed): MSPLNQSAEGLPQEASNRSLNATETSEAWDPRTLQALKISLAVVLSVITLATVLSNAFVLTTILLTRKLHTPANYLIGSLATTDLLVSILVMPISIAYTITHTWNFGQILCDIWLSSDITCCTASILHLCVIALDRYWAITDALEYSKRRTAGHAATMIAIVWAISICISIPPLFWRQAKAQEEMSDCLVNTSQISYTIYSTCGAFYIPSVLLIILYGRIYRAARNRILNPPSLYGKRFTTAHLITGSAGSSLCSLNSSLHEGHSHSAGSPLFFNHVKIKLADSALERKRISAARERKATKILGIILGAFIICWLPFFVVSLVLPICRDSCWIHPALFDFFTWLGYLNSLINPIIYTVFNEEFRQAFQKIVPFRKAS
Description: as §1, §2

Alpha1A = target: T1, Alpha1A (Homo sapiens, UniProt P35348)
T1 construct: purchased NIMH Psychoactive Drug Screening Program (PDSP)
Description: as §1, §2

5-HT5A = target: T2, 5-HT5A (Homo sapiens, UniProt P47898)
T2 construct: purchased NIMH Psychoactive Drug Screening Program (PDSP)
Description: as §1, §2

Alpha2B = target: T3, Alpha2B (Homo sapiens, UniProt P18089)
T3 sequence (P18089 1-450): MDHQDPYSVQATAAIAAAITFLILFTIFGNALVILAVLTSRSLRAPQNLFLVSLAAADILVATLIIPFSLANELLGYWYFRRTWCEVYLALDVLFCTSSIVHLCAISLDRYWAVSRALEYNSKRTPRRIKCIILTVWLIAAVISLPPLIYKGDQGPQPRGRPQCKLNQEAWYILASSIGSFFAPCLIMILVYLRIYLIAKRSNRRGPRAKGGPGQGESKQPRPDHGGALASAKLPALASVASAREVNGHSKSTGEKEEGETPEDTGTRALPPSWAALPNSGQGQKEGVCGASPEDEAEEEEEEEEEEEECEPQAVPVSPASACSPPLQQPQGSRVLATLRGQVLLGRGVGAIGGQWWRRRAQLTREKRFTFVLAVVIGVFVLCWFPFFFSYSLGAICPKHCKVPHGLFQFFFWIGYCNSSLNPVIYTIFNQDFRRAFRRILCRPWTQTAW
Description: as §1, §2

D4 = target: T4, D4 (Homo sapiens, UniProt P21917)
T4 construct: purchased NIMH Psychoactive Drug Screening Program (PDSP)
Description: as §1, §2

H1 = H1 (Homo sapiens, UniProt P35367)
Chain of H1 (P35367 whole entry): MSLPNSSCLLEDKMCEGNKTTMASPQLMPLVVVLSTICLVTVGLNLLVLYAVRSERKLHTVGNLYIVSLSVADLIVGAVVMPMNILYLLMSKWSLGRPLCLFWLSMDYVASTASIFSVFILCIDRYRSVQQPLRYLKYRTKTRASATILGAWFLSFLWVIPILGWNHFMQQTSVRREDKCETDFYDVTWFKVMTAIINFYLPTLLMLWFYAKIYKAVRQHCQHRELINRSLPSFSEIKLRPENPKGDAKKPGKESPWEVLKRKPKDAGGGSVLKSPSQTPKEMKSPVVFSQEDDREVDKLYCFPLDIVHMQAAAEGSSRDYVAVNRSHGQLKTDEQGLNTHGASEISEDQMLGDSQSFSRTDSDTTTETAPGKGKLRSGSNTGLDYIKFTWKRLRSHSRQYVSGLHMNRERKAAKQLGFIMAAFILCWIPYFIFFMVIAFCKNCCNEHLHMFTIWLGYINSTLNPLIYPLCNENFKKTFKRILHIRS
Description: as §1, §2

5-HT1A = target: T5, 5-HT1A (Homo sapiens, UniProt P08908)
T5 construct: purchased NIMH Psychoactive Drug Screening Program (PDSP)
Description: as §1, §2

D3 = D3 (Homo sapiens, UniProt P35462)
Chain of D3 (P35462 whole entry): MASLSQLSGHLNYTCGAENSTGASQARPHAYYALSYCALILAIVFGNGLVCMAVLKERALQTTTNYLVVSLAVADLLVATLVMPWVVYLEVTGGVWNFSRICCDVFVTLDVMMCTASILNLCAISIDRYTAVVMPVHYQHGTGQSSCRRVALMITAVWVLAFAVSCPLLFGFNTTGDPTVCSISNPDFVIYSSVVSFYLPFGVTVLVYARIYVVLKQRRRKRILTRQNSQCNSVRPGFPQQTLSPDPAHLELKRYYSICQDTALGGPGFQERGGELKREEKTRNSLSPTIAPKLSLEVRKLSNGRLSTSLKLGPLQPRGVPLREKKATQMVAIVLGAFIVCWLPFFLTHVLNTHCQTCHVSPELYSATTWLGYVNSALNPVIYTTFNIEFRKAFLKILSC
Description: as §1, §2

BZP Rat Brain Site = conditions: 10 µM
Description: as §1, §2

5-HT1B = 5-HT1B (Homo sapiens, UniProt P28222)
Chain of 5-HT1B (P28222 whole entry, species assumed): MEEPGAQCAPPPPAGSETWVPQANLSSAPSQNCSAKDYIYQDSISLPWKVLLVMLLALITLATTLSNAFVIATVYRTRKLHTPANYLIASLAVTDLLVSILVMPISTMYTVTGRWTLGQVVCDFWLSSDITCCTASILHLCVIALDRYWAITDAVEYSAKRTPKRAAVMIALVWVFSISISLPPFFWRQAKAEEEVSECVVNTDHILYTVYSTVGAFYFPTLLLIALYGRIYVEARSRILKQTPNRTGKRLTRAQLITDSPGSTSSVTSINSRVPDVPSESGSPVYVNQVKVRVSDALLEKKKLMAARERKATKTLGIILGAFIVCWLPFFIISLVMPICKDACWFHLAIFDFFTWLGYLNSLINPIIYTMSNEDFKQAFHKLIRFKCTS
Description: as §1, §2

M1 = target: T6, M1 (Homo sapiens, UniProt P11229)
T6 construct: purchased NIMH Psychoactive Drug Screening Program (PDSP)
Description: as §1, §2

Alpha1B = target: T7, Alpha1B (Homo sapiens, UniProt P35368)
T7 construct: purchased NIMH Psychoactive Drug Screening Program (PDSP)
Description: as §1, §2

H3 = H3 (Homo sapiens, UniProt Q9Y5N1)
Chain of H3 (Q9Y5N1 whole entry): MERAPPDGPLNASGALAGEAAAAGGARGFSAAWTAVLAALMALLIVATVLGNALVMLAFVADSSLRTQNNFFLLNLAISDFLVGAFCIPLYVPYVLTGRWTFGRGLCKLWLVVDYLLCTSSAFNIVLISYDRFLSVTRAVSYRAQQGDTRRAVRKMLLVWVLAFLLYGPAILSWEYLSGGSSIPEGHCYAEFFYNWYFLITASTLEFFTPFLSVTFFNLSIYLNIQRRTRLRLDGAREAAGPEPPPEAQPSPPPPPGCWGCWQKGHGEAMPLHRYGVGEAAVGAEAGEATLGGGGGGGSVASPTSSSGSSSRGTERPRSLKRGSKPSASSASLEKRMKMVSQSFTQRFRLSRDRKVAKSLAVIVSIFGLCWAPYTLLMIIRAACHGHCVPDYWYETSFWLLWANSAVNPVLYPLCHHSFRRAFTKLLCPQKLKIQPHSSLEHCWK
Description: as §1, §2

D2 = target: T8, D2 (Homo sapiens, UniProt P14416)
T8 construct: purchased NIMH Psychoactive Drug Screening Program (PDSP)
Description: as §1, §2

Beta3 = target: T9, Beta3 (Homo sapiens, UniProt P13945)
T9 construct: purchased NIMH Psychoactive Drug Screening Program (PDSP)
T9 sequence (P13945 whole entry): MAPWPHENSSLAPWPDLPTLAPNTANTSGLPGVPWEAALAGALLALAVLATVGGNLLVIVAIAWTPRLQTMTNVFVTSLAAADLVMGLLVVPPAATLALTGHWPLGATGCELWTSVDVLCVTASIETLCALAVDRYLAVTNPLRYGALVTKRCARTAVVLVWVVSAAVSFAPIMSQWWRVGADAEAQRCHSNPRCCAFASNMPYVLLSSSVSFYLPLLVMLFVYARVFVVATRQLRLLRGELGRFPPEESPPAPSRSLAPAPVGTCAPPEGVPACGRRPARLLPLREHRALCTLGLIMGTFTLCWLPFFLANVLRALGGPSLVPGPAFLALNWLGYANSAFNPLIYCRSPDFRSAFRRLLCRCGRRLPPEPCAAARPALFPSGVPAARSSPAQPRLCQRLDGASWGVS
Description: as §1, §2

D5 = D5 (Homo sapiens, UniProt P21918)
Chain of D5 (P21918 whole entry): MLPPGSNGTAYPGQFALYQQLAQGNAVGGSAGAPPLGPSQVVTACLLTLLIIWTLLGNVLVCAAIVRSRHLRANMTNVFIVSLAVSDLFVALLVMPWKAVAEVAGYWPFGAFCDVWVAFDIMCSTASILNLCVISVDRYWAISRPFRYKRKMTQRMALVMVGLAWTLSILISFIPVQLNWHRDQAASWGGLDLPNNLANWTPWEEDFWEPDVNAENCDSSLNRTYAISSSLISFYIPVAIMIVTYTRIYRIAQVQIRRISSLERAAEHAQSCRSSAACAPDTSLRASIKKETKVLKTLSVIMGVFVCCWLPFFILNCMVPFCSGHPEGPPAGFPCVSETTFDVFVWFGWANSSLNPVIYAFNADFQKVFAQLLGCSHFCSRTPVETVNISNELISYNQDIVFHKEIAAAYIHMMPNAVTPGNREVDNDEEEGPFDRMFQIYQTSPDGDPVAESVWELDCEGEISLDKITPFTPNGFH
Description: as §1, §2

H4 = target: T10, H4 (Homo sapiens, UniProt Q9H3N8)
T10 construct: purchased NIMH Psychoactive Drug Screening Program (PDSP)
Description: as §1, §2

5-HT2A = 5-HT2A (Homo sapiens, UniProt P28223)
Chain of 5-HT2A (P28223 whole entry, species assumed): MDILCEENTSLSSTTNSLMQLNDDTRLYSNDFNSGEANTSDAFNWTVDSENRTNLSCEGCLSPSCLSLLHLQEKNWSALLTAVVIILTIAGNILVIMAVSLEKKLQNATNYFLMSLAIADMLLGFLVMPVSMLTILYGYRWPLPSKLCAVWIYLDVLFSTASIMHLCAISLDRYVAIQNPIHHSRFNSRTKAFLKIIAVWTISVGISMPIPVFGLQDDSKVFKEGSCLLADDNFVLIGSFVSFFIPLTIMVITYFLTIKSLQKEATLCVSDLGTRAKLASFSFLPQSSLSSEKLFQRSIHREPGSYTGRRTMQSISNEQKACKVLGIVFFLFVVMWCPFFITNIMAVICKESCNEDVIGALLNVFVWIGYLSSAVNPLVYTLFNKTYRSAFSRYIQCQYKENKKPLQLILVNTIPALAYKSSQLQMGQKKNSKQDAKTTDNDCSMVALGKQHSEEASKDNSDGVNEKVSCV
Description: as §1, §2

Alpha2A = target: T11, Alpha2A (Homo sapiens, UniProt P08913)
T11 sequence (P08913 1-465): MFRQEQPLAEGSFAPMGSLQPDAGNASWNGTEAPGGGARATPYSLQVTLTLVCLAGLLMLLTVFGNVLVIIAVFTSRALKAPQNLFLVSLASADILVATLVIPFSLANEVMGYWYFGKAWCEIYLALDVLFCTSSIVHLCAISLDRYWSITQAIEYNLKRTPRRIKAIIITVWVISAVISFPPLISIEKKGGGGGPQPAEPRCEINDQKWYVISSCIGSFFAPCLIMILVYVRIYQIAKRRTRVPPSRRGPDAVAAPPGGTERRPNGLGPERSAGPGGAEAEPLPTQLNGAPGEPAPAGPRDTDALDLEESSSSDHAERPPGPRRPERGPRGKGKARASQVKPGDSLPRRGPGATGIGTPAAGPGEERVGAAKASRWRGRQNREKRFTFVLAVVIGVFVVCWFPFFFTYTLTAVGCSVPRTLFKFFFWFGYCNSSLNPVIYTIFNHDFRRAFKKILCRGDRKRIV
Description: as §1, §2

KOR = KOR (Homo sapiens, UniProt P41145)
Chain of KOR (P41145 whole entry): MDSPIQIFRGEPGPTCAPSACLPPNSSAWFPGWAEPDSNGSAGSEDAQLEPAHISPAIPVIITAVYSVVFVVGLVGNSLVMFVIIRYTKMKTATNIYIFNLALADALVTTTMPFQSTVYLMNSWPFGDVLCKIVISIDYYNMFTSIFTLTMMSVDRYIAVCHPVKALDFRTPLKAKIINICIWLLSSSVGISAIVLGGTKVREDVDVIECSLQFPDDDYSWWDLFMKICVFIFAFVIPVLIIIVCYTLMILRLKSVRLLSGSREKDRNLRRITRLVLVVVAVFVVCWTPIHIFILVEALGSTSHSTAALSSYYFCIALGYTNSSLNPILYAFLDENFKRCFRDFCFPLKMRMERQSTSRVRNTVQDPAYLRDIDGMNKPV
Description: as §1, §2

M2 = target: T12, M2 (Homo sapiens, UniProt P08172)
T12 construct: purchased NIMH Psychoactive Drug Screening Program (PDSP)
Description: as §1, §2

Alpha1D = target: T13, Alpha1D (Homo sapiens, UniProt P25100)
T13 construct: purchased NIMH Psychoactive Drug Screening Program (PDSP)
Description: as §1, §2

5-HT2B = 5-HT2B (Homo sapiens, UniProt P41595)
Chain of 5-HT2B (P41595 whole entry, species assumed): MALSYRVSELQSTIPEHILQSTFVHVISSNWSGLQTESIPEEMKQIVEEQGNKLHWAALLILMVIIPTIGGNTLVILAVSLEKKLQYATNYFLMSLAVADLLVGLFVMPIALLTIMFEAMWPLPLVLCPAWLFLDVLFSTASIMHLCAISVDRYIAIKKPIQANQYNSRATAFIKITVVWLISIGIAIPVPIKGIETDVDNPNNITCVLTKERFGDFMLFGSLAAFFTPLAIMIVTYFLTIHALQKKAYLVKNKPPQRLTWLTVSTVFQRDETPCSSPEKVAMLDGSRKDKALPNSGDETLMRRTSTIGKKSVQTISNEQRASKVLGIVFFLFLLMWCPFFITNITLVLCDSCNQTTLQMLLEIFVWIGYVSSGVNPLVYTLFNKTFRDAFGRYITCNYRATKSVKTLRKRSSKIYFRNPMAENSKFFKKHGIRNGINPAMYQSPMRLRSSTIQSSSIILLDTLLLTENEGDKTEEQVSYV
Description: as §1, §2

Chain of 5-HT7A (P34969 1-445 isoform P34969-2): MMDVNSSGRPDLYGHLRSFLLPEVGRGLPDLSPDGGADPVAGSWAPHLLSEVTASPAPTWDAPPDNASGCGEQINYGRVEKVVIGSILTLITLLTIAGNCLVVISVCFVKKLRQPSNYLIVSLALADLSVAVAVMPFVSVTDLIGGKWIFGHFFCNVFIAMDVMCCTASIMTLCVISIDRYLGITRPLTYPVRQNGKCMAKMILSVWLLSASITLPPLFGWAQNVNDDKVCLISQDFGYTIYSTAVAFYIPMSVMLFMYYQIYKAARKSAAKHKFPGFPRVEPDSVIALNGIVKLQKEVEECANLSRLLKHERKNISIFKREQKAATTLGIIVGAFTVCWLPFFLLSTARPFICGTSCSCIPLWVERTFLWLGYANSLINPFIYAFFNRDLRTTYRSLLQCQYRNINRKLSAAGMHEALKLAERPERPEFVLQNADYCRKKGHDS

Row | Compound | inhibition at 10 µM (5-HT7A) | Mean % (inhibition) (GABAA) | Ki (5-HT1D) | inhibition at 10 µM (5-HT1D) | inhibition at 10 µM (Alpha1A) | inhibition at 10 µM (5-HT5A) | Ki (Alpha2B) | inhibition at 10 µM (Alpha2B) | inhibition at 10 µM (D4) | inhibition at 10 µM (H1) | inhibition at 10 µM (5-HT1A) | Ki (D3) | inhibition at 10 µM (D3) | Mean % (inhibition) (BZP Rat Brain Site) | Ki (5-HT1B) | inhibition at 10 µM (5-HT1B) | inhibition at 10 µM (M1) | inhibition at 10 µM (Alpha1B) | inhibition at 10 µM (H3) | inhibition at 10 µM (D2) | other results
1 | COc1ccc(-c2nc(C)c(Cl)c(OCCCN3CCCCC3)n2)cc1 [CNY-01, 5‐chloro‐2‐(4‐methoxyphenyl)‐4‐methyl‐6‐(3‐(piperidin‐1‐yl)propoxy)pyrimidine] | 59.3% | 25.49% | 2670 nM | 91.9% | 21.6% | 31.9% | 1350 nM | 93.1% | 48% | 93.2% | 17.5% | 521 nM | 65.8% | 10.99% | 3200 nM | 79.8% | 22.3% | -11.4% | 62.8% | 4.43% | Ki (5-HT7A): 4700 nM; Ki (H1): 667 nM; Ki (H3): 1060 nM; inhibition at 10 µM (Beta3): 9.11%; inhibition at 10 µM (D5): 27.2%; inhibition at 10 µM (H4): 24%; inhibition at 10 µM (5-HT2A): 36.3%; Ki (Alpha2A): 2370 nM; inhibition at 10 µM (Alpha2A): 55.9%; Ki (KOR): 1060 nM; inhibition at 10 µM (KOR): 61.1%; inhibition at 10 µM (M2): 36.4%; inhibition at 10 µM (Alpha1D): 23%; Ki (5-HT2B): 914 nM; inhibition at 10 µM (5-HT2B): 77.1%
2 | Cc1nc(-c2ccc(Cl)cc2)nc(OCCCN2CCN(C)CC2)c1Cl [CNY-02, 5‐chloro‐2‐(4‐chlorophenyl)‐4‐methyl‐6‐(3‐(4‐methylpiperazin‐1‐yl)propoxy)pyrimidine] | -4.02% | 32.06% | 7280 nM | 54.5% | -1.08% | 29.4% | 3390 nM | 68.4% | 17.8% | 43.7% | -2.49% | 4910 nM | 66.1% | 23.26% | 3740 nM | 60.3% | 36% | -26.1% | 42.9% | -0.57% | inhibition at 10 µM (Beta3): -3.01%; Ki (D5): > 10000 nM; inhibition at 10 µM (D5): 58%; inhibition at 10 µM (H4): 23.3%; Ki (5-HT2A): 466 nM; inhibition at 10 µM (5-HT2A): 85.5%; inhibition at 10 µM (Alpha2A): 47.6%; inhibition at 10 µM (KOR): 20.4%; inhibition at 10 µM (M2): 29.1%; inhibition at 10 µM (Alpha1D): -14.8%; Ki (5-HT2B): 530 nM; inhibition at 10 µM (5-HT2B): 90.4%
